Patent US11090319B2, “Therapeutic uses of pharmaceutical compositions comprising cyclic boronic acid ester derivatives” (Melinta Subsidiary Corp., priority 2010, dated 2021)
Like-named read-outs stand apart in the source and are kept apart here.

Experiments:
[1] = system: ec307 Escherichia coli SHV-4; test: Ceftazidime MIC with fixed concentration of BLI; assay type: cell-based; settings: ec307 SHV-4; for Ceftazidime MIC with cyclic boronic acid ester derivative: derivative at 10 μg/mL
Method: (§1) Next, ceftazidime potentiation activity of several cyclic boronic acid ester derivatives was tested using a larger panel of strains expressing β-lactamase hydrolyzing enzymes. Ceftazidime MICs were determined alone and in the presence of fixed concentrations of various cyclic boronic acid ester derivatives.

[2] = system: EC1016 Escherichia coli FOX-5; test: Ceftazidime MIC with fixed concentration of BLI; assay type: cell-based; settings: EC1016 FOX-5; for Ceftazidime MIC with cyclic boronic acid ester derivative: derivative at 10 μg/mL
Method: as §1

[3] = system: ECL1003 Enterobacter cloacae Hyper AmpC expression; test: Ceftazidime MIC with fixed concentration of BLI; assay type: cell-based; settings: for Ceftazidime MIC with cyclic boronic acid ester derivative: derivative at 10 μg/mL
Method: as §1

[4] = system: KP1010 Klebsiella pneumoniae SHV-12; test: Ceftazidime MIC with fixed concentration of BLI; assay type: cell-based; settings: KP1010 SHV-12; for Ceftazidime MIC with cyclic boronic acid ester derivative: derivative at 10 μg/mL
Method: as §1

[5] = system: KP1011 Klebsiella pneumoniae SHV-5; test: microbe, parasite or virus in culture; assay type: cell-based; settings: for Ceftazidime MIC with cyclic boronic acid ester derivative: derivative at 10 μg/mL, KP1011 SHV-5
Method: as §1

SHV-5, lysate of ec308 = SHV-5, lysate of ec308 (Escherichia coli, UniProt P0AD63, E235K/G234S); test: Inhibition of ceftazidime hydrolysis by bacterial lysate
[6] = system: SM1000 Serratia marcescens SME-2; test: Checkerboard assay, biapenem potentiation; settings: Biapenem MIC 8-fold; SM1000 SME-2 class A
OXA-10, lysate of KP1007 = OXA-10, lysate of KP1007 (Pseudomonas aeruginosa, UniProt P14489); test: Inhibition of ceftazidime hydrolysis by bacterial lysate
[7] = system: AB1052 Acinetobacter baumannii OXA-24; test: Checkerboard assay, biapenem potentiation; settings: Biapenem MIC 8-fold; AB1052 OXA-24 class D
KPC-2, lysate of KP1004 = KPC-2, lysate of KP1004 (Klebsiella pneumoniae, UniProt Q9F663); test: Inhibition of ceftazidime hydrolysis by bacterial lysate
DHA-1, lysate of EC1014 = DHA-1, lysate of EC1014 (Escherichia coli, UniProt Q84AE0); test: as above; settings: read-out: IC50 of inhibition of Ceftazidime hydrolysis; EC1014 DHA-1
[8] = target: CTX-M-15, lysate of KP1009 (Escherichia coli, UniProt Q9EXV5); test: as above
SHV-12, lysate of KP1010 = SHV-12, lysate of KP1010 (Klebsiella pneumoniae, UniProt P0AD64, E235K/G234S/L31Q); test: as above
SHV-18, lysate of KP1012 = SHV-18, lysate of KP1012 (Klebsiella pneumoniae, UniProt P0AD64, E235K/G234A/R39S); test: as above
[9] = target: various β-lactamases (bacterial lysates) (Pseudomonas aeruginosa, UniProt P14489); test: biochemical; assay type: biochemical; settings: AZT IC50 KP1007 OXA-10
[10] = target: various β-lactamases (bacterial lysates) (Salmonella typhimurium, UniProt P0A1V8); test: biochemical; assay type: biochemical; settings: AZT IC50 KPX1001 OXA-2
[11] = target: various β-lactamases (bacterial lysates) (Escherichia coli, UniProt A0A5R8T042); test: biochemical; assay type: biochemical; settings: read-out: AZT IC50 KP1009 CTX-M-15
[12] = target: various β-lactamases (bacterial lysates) (Klebsiella pneumoniae, UniProt Q9F663); test: biochemical; assay type: biochemical; settings: aztreonam cleavage
[13] = target: various β-lactamases (bacterial lysates) (Escherichia coli, UniProt A0A649V088); test: biochemical; assay type: biochemical; settings: read-out: AZT IC50 KP1005 CTX-M-14
[14] = target: various β-lactamases (bacterial lysates) (Klebsiella pneumoniae, UniProt Q9F663, H272Y); test: biochemical; assay type: biochemical
[15] = target: CTX-M-14, lysate of KP1005 (Escherichia coli, UniProt Q9L5C7); test: Inhibition of ceftazidime hydrolysis by bacterial lysate
OXA-2, lysate of KX1000 = OXA-2, lysate of KX1000 (Salmonella typhimurium, UniProt P0A1V8); test: as above
GES-1, lysate of pa 1063 = GES-1, lysate of pa 1063 (Klebsiella pneumoniae, UniProt Q9KJY7); test: as above
KPC-2, lysate of KP1008 = KPC-2, lysate of KP1008 (Klebsiella pneumoniae, UniProt Q9F663); test: as above
[16] = system: ECL1004 Enterobacter cloacae NMC-A; test: Checkerboard assay, biapenem potentiation; settings: Biapenem MIC 8-fold; ECL1004 NMC-A class A
SHV-2, lysate of ec306 = SHV-2, lysate of ec306 (Escherichia coli, UniProt P0A9Z7); test: Inhibition of ceftazidime hydrolysis by bacterial lysate
SME-2, lysate of SM1000 = SME-2, lysate of SM1000 (Serratia marcescens, UniProt P52682); test: Inhibition of biapenem hydrolysis by bacterial lysate; settings: read-out: IC50 of inhibition of biapenem hydrolysis; SM1000 SME-2
[17] = target: various β-lactamases (bacterial lysates) (Escherichia coli, UniProt Q53TY8); test: Inhibition of nitrocefin cleavage by bacterial lysates, Table 11; assay type: biochemical; settings: lysate EC1010 pAmpC (CMY-6), read-out: NCF IC50 EC1010 pAmpC (CMY-6)
[18] = Escherichia coli, read-out: Ceftazidime MIC Alone
[19] = Klebsiella pneumoniae, read-out: Ceftazidime MIC Alone
[20] = lysate KP1004 KPC-2, read-out: AZT IC50 KP1004 KPC-2 (converted)
[21] = lysate KP1008 KPC-2, read-out: AZT IC50 KP1008 KPC-2

various β-lactamases (bacterial lysates) (Escherichia coli, UniProt A0A5R8T042), sequence (A0A5R8T042 29-291): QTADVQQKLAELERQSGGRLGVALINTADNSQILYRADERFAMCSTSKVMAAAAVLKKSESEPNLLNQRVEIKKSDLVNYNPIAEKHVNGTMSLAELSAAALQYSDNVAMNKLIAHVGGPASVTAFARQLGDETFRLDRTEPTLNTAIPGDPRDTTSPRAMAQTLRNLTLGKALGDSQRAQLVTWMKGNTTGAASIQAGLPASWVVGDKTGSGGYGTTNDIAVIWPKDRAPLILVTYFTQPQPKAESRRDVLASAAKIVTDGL
CTX-M-15, lysate of KP1009, sequence (Q9EXV5 entry or part of it): as the sequence (A0A5R8T042 29-291) above

Row | Compound | IC50 (SHV-5, lysate of ec308) [µM] | Ceftazidime MIC with cyclic boronic acid ester derivative [1] | Ceftazidime MIC with cyclic boronic acid ester derivative [2] | Ceftazidime MIC with cyclic boronic acid ester derivative [3] | Ceftazidime MIC with cyclic boronic acid ester derivative [4] | MPC8 [6] | IC50 (OXA-10, lysate of KP1007) [µM] | MPC8 [7] | IC50 (KPC-2, lysate of KP1004) [µM] | IC50 (DHA-1, lysate of EC1014) [µM] | IC50 [8] [µM] | IC50 (SHV-12, lysate of KP1010) [µM] | IC50 (SHV-18, lysate of KP1012) [µM] | IC50 [9] [µM] | IC50 [10] [µM] | IC50 [11] [µM] | IC50 [15] [µM] | IC50 (OXA-2, lysate of KX1000) [µM] | IC50 (GES-1, lysate of pa 1063) [µM] | IC50 (SHV-2, lysate of ec306) [µM] | also measured
1 | CC(C)(O/N=C(\C(=O)N[C@@H]1C(=O)N2C(C(=O)[O-])=C(C[n+]3ccccc3)CS[C@H]12)c1csc(N)n1)C(=O)O [Ceftazidime, reference compound] | – | – | – | – | – | – | – | – | – | – | – | – | – | – | – | – | – | – | – | – | MIC [1, 18]: > 8 µg/mL; MIC [2, 18]: > 8 µg/mL; MIC ([3]; Enterobacter cloacae, read-out: Ceftazidime MIC Alone): > 8 µg/mL; MIC [4, 19]: > 8 µg/mL; MIC [5, 19]: 1 to 8 µg/mL
2 | CC(=O)N[C@H]1CCC(CC(=O)O)OB1O (stereo partly drawn) [Compound 3, 2-((3R)-3-acetamido-2-hydroxy-1,2-oxaborinan-6-yl)acetic acid] | > 4.65 | Z (MIC of greater than 8 μg/mL) | Z (MIC of greater than 8 μg/mL) | Z (MIC of greater than 8 μg/mL) | Z (MIC of greater than 8 μg/mL) | Y (MPC8 of 0.16 μg/mL to 1 μg/mL) | > 4.65 | Z (MPC8 of greater than 1 μg/mL) | < 0.465 | > 4.65 | > 4.65 | > 4.65 | > 4.65 | > 9.3 | > 9.3 | > 9.3 | > 4.65 | > 4.65 | > 4.65 | > 4.65 | IC50 [12, 20]: < 2.33 µM; IC50 [12, 21]: 2.33 to 9.3 µM; IC50 [13]: < 2.33 µM; IC50 [14]: < 2.33 µM; Ceftazidime MIC with cyclic boronic acid ester derivative [5]: X (MIC of 1 μg/mL or less); IC50 (KPC-2, lysate of KP1008): 0.465 to 4.65 µM; MPC8 [16]: X (MPC8 of less than 0.16 μg/mL)
3 | O=C(O)CC1CC[C@H](NC(=O)C2CC2)B(O)O1 (stereo partly drawn) [Compound 4, 2-((3R)-3-(cyclopropanecarboxamido)-2-hydroxy-1,2-oxaborinan-6-yl)acetic acid] | > 4.15 | Z (MIC of greater than 8 μg/mL) | Z (MIC of greater than 8 μg/mL) | Z (MIC of greater than 8 μg/mL) | Z (MIC of greater than 8 μg/mL) | X (MPC8 of less than 0.16 μg/mL) | > 4.15 | Z (MPC8 of greater than 1 μg/mL) | < 0.415 | > 4.15 | > 4.15 | > 4.15 | > 4.15 | > 8.3 | > 8.3 | 2.07 to 8.3 | > 4.15 | > 4.15 | 0.415 to 4.15 | > 4.15 | IC50 (SME-2, lysate of SM1000): 0.415 to 4.15 µM; IC50 [12, 20]: < 2.07 µM; IC50 [12, 21]: < 2.07 µM; IC50 [13]: < 2.07 µM; IC50 [14]: < 2.07 µM; IC50 [17]: > 8.3 µM; Ceftazidime MIC with cyclic boronic acid ester derivative [5]: X (MIC of 1 μg/mL or less); IC50 (KPC-2, lysate of KP1008): < 0.415 µM; MPC8 [16]: X (MPC8 of less than 0.16 μg/mL)
4 | O=C(O)C[C@@H]1CC[C@H](NC(=O)Cc2cccs2)B(O)O1 [Compound 5, 2-((3R,6S)-2-hydroxy-3-(2-(thiophen-2-yl)acetamido)-1,2-oxaborinan-6-yl)acetic acid] | > 3.37 | Y (MIC of greater than 1 μg/mL to 8 μg/mL) | Z (MIC of greater than 8 μg/mL) | Z (MIC of greater than 8 μg/mL) | Y (MIC of greater than 1 μg/mL to 8 μg/mL) | Y (MPC8 of 0.16 μg/mL to 1 μg/mL) | 0.337 to 3.37 | Z (MPC8 of greater than 1 μg/mL) | – | 0.337 to 3.37 | < 0.337 | 0.337 to 3.37 | 0.337 to 3.37 | > 6.73 | < 1.68 | 1.68 to 6.73 | < 0.337 | < 0.337 | < 0.337 | 0.337 to 3.37 | IC50 (SME-2, lysate of SM1000): < 0.337 µM; IC50 [12, 20]: < 1.68 µM; IC50 [12, 21]: < 1.68 µM; IC50 [13]: < 1.68 µM; IC50 [14]: < 1.68 µM; IC50 [17]: > 6.73 µM; MPC8 [16]: Y (MPC8 of 0.16 μg/mL to 1 μg/mL)
5 | O=C(O)C[C@@H]1CC[C@H](NC(=O)Cc2ccccc2)B(O)O1 [Compound 6, 2-((3R,6S)-2-hydroxy-3-(2-phenylacetamido)-1,2-oxaborinan-6-yl)acetic acid] | > 3.44 | Z (MIC of greater than 8 μg/mL) | Z (MIC of greater than 8 μg/mL) | Z (MIC of greater than 8 μg/mL) | Y (MIC of greater than 1 μg/mL to 8 μg/mL) | Y (MPC8 of 0.16 μg/mL to 1 μg/mL) | > 3.44 | Z (MPC8 of greater than 1 μg/mL) | < 0.344 | > 3.44 | 0.344 to 3.44 | > 3.44 | 0.344 to 3.44 | > 6.87 | 1.72 to 6.87 | < 1.72 | 0.344 to 3.44 | 0.344 to 3.44 | 0.344 to 3.44 | 0.344 to 3.44 | IC50 (SME-2, lysate of SM1000): 0.344 to 3.44 µM; IC50 [12, 20]: < 1.72 µM; IC50 [12, 21]: < 1.72 µM; IC50 [13]: < 1.72 µM; IC50 [14]: < 1.72 µM; IC50 [17]: > 6.87 µM; Ceftazidime MIC with cyclic boronic acid ester derivative [5]: X (MIC of 1 μg/mL or less); IC50 (KPC-2, lysate of KP1008): < 0.344 µM; MPC8 [16]: Y (MPC8 of 0.16 μg/mL to 1 μg/mL)
6 | Cl.N[C@H]1CCC(CC(=O)O)OB1O (stereo partly drawn) [Compound 7, 2-((3R)-3-amino-2-hydroxy-1,2-oxaborinan-6-yl)acetic acid hydrochloride] | > 4.77 | Z (MIC of greater than 8 μg/mL) | – | – | Z (MIC of greater than 8 μg/mL) | – | > 4.77 | – | > 4.77 | > 4.77 | 0.477 to 4.77 | > 4.77 | > 4.77 | – | – | – | > 4.77 | > 4.77 | 0.477 to 4.77 | > 4.77 | IC50 (KPC-2, lysate of KP1008): > 4.77 µM
